Consider one compound from ChEMBL document CHEMBL1201862, “PubChem BioAssay data set” (2004).

What is called EC50 is the concentration that produces a half-maximal response. The IC50 is the concentration at which inhibition is half-maximal. Broadly, the AC50 is the concentration giving half of the maximal activity seen. Usually CC50 stands for the concentration that lowers cell viability or growth by half.

For one experiment, the target named is T1, Protein RecA (Mycobacterium tuberculosis, UniProt P9WHJ3).
T1 sequence (P9WHJ3 whole entry): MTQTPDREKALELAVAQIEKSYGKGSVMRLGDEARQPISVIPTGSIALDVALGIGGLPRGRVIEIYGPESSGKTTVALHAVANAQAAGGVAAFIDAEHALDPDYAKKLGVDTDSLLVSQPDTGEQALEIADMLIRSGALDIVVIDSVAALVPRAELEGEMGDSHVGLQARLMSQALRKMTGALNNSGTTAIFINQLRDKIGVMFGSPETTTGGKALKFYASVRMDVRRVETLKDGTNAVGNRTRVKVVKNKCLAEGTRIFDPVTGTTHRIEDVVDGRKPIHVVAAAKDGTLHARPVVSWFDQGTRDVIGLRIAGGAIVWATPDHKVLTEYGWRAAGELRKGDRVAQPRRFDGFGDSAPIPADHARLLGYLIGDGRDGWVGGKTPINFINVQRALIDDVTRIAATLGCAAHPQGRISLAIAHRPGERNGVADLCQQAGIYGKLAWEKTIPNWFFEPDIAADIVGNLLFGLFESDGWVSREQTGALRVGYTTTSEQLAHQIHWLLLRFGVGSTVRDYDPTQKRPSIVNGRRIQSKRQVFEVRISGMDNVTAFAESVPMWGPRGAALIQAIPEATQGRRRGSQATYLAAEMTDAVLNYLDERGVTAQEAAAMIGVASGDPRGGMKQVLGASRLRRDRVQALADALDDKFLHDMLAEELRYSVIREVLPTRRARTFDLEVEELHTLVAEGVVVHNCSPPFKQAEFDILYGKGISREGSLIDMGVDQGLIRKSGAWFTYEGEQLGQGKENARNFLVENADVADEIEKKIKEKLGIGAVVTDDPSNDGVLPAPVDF
Put plainly: Fluorescence Cell-Free Homogeneous Dose Retest to Identify Inhibitors of RecA-Intein Splicing Activity. [Related pubchem assays (depositor defined):AID2097, AID2223, AID489010, AID492950]. The class given is functional.

The next experiment addresses Large T antigen (Simian virus 40, UniProt P03070). The class given is functional, Betapolyomavirus macacae.
Experiment [1] has as its target T2, Replicative DNA helicase DnaB (Mycobacterium tuberculosis, UniProt P9WMR3).
T2 sequence (P9WMR3 whole entry): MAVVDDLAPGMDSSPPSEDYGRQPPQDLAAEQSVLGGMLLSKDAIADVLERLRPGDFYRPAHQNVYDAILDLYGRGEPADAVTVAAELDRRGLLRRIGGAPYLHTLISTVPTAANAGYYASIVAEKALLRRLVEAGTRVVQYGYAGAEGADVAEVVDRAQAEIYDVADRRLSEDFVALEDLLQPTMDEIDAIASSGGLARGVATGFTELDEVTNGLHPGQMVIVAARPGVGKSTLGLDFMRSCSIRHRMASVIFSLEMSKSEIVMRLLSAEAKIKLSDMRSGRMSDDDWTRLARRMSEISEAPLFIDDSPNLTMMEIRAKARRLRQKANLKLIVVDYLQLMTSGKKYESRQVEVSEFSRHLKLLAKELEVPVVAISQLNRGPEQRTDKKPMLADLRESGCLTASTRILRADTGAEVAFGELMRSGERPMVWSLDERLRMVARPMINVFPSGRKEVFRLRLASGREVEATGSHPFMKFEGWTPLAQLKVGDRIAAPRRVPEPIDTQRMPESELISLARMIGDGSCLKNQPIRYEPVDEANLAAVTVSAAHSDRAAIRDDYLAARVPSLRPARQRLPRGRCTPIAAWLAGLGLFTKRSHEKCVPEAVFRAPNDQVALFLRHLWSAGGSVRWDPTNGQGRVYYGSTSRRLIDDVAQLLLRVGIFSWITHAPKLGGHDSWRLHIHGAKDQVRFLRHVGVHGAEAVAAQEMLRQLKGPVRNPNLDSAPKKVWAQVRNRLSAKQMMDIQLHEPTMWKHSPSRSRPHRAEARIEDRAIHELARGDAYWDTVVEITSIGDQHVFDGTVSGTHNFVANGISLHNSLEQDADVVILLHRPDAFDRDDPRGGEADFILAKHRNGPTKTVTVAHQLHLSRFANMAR
Put plainly: DnaB intein splicing inhibitors, dose response, biochemical, cell-free fluorescence (AID 449749). The class given is functional.

The nature of experiment [2]: viability loss in THP-1 monocytes – THP-1 cells, cytotoxicity control for Vif-APOBEC3G degradation inhibitor project, dose response (AID 1117359). The class given is functional. As to conditions: THP-1.

The source made the active and inactive calls. Bounds are passed on as bounds.
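For IC50 in this document: Confirmatory-stage PubChem screen for compounds that inhibit SV40 T antigen.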

Chain of Large T antigen (P03070 whole entry): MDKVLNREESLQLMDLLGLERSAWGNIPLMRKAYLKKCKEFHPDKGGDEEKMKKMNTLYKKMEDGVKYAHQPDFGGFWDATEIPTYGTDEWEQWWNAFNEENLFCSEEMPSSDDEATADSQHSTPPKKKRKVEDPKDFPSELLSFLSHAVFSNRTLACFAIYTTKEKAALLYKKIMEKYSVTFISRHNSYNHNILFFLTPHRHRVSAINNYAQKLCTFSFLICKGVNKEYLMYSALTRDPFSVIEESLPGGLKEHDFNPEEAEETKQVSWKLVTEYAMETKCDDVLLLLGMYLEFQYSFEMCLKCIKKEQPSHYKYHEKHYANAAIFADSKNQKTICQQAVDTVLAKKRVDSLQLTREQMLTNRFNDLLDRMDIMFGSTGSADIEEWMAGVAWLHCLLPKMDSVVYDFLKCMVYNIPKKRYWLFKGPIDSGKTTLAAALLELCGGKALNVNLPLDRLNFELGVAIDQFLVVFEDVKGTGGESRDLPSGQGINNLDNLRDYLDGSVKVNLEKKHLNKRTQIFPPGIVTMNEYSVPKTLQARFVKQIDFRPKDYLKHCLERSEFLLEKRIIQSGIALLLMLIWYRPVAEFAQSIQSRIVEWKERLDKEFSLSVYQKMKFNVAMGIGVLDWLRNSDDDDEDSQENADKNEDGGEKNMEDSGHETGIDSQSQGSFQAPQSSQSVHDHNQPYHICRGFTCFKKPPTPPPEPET

Take `COc1ccc(Nc2ccc(OC)cc2)cc1`: on Protein RecA, the EC50 is > 380 µM (inactive). Also, on Large T antigen, the IC50 was 26.2 µM (active). Moreover, the AC50 in experiment [1] is 121 µM (active). The half-maximal cytotoxic concentration (CC50) in experiment [2] was 21 µM (active).
